From publication doi:10.1101/2024.08.19.608619, “Discovery of potent SARS-CoV-2 nsp3 macrodomain inhibitors uncovers lack of translation to cellular antiviral response” (bioRxiv, 2024)
Read-outs that look alike come from different tables or passages of the source.

How the values were obtained:
SARS-CoV-2 nsp3-mac1 [1] = target: T1, SARS-CoV-2 nsp3-mac1 (Severe acute respiratory syndrome coronavirus 2, UniProt P0DTD1); assay: biochemical; type: biochemical; conditions: SARS-CoV-2 nsp3 macrodomain TR-FRET single point, n=2
SARS-CoV-2 nsp3-mac1 [2] = target: T1, SARS-CoV-2 nsp3-mac1; assay: biochemical; design: SARS-CoV-2 nsp3 macrodomain TR-FRET single point, per cent inhibition, n=2
[3] = read-out: perc_inhibition_mean, batch_name=ASAP-0000320-001
[4] = read-out: perc_inhibition_mean, batch_name=ASAP-0000321-001
[5] = read-out: perc_inhibition_mean, batch_name=ASAP-0000322-001
[6] = read-out: perc_inhibition_mean, batch_name=ASAP-0000323-001
[7] = read-out: perc_inhibition_mean, batch_name=ASAP-0000324-001
[8] = read-out: perc_inhibition_mean, batch_name=ASAP-0000325-001
[9] = read-out: perc_inhibition_mean, batch_name=ASAP-0000326-001
[10] = read-out: perc_inhibition_mean, batch_name=ASAP-0000327-001
[11] = read-out: perc_inhibition_mean, batch_name=ASAP-0000328-001
[12] = read-out: perc_inhibition_mean, batch_name=ASAP-0000329-001
[13] = read-out: perc_inhibition_mean, batch_name=ASAP-0000330-001
[14] = read-out: perc_inhibition_mean, batch_name=ASAP-0000331-001
[15] = read-out: perc_inhibition_mean, batch_name=ASAP-0000332-001
[16] = read-out: perc_inhibition_mean, batch_name=ASAP-0000333-001
[17] = read-out: perc_inhibition_mean, batch_name=ASAP-0000334-001
[18] = read-out: perc_inhibition_mean, batch_name=ASAP-0000335-001
[19] = read-out: perc_inhibition_mean, batch_name=ASAP-0000336-001

SMILES | perc_inhibition_mean (SARS-CoV-2 nsp3-mac1 [1]; concentration 49.75 uM) [%] | perc_inhibition_mean (SARS-CoV-2 nsp3-mac1 [1]; concentration 99.5 uM) [%] | also measured
CCn1cc(CNC(=O)c2ccc(NC(=O)Nc3ccccc3)cc2)cn1 [ASAP-0000320] | -1.76 | 3.797 | inhibition at 49.75 µM (SARS-CoV-2 nsp3-mac1 [2]; [3]): -1.76%; inhibition at 99.5 µM (SARS-CoV-2 nsp3-mac1 [2]; [3]): 3.8%
Cn1c(C(=O)N(CCC(=O)N2CCNCC2)Cc2cccc(Cl)c2)cnc1O [ASAP-0000321] | -4.765 | -2.757 | inhibition at 49.75 µM (SARS-CoV-2 nsp3-mac1 [2]; [4]): -4.76%; inhibition at 99.5 µM (SARS-CoV-2 nsp3-mac1 [2]; [4]): -2.76%
CC(C)n1nccc1NC(=O)c1ccc(NC(=O)Nc2ccccc2)cc1 [ASAP-0000322] | -1.998 | -0.924 | inhibition at 49.75 µM (SARS-CoV-2 nsp3-mac1 [2]; [5]): -2%; inhibition at 99.5 µM (SARS-CoV-2 nsp3-mac1 [2]; [5]): -0.924%
O=C(CCN(Cc1cccc(Cl)c1)C(=O)[C@@H]1CNCC12CC2)N1CCNCC1 [ASAP-0000323] | 4.205 | 2.382 | inhibition at 49.75 µM (SARS-CoV-2 nsp3-mac1 [2]; [6]): 4.21%; inhibition at 99.5 µM (SARS-CoV-2 nsp3-mac1 [2]; [6]): 2.38%
CO[C@@H]1CCCN(C(=O)c2cnn3ccc(C4CCN(C(=O)c5ccccc5)CC4)cc23)C1 [ASAP-0000324] | 22.606 | 39.842 | inhibition at 49.75 µM (SARS-CoV-2 nsp3-mac1 [2]; [7]): 22.6%; inhibition at 99.5 µM (SARS-CoV-2 nsp3-mac1 [2]; [7]): 39.8%
N[C@@H]1CCC[C@@H](C(=O)N(CCC(=O)N2CCNCC2)Cc2cccc(Cl)c2)C1 [ASAP-0000325] | -0.755 | -1.468 | inhibition at 49.75 µM (SARS-CoV-2 nsp3-mac1 [2]; [8]): -0.755%; inhibition at 99.5 µM (SARS-CoV-2 nsp3-mac1 [2]; [8]): -1.47%
O=C(CCN(Cc1cccc(Cl)c1)C(=O)C1(O)CCCC1)N1CCNCC1 [ASAP-0000326] | -1.213 | -1.781 | inhibition at 49.75 µM (SARS-CoV-2 nsp3-mac1 [2]; [9]): -1.21%; inhibition at 99.5 µM (SARS-CoV-2 nsp3-mac1 [2]; [9]): -1.78%
Cc1nccc(C(=O)N2CCC(c3ccn4ncc(C(=O)N5CCCCC5)c4c3)CC2)n1 [ASAP-0000327] | 16.537 | 27.369 | inhibition at 49.75 µM (SARS-CoV-2 nsp3-mac1 [2]; [10]): 16.5%; inhibition at 99.5 µM (SARS-CoV-2 nsp3-mac1 [2]; [10]): 27.4%
O=C(c1cn2ncccc2n1)N1CCC(c2ccn3ncc(C(=O)N4CCCCC4)c3c2)CC1 [ASAP-0000328] | 30.741 | 53.75 | inhibition at 49.75 µM (SARS-CoV-2 nsp3-mac1 [2]; [11]): 30.7%; inhibition at 99.5 µM (SARS-CoV-2 nsp3-mac1 [2]; [11]): 53.8%
O=C(c1cc(O)ccn1)N1CCC(c2ccn3ncc(C(=O)N4CCCCC4)c3c2)CC1 [ASAP-0000329] | 17.623 | 32.165 | inhibition at 49.75 µM (SARS-CoV-2 nsp3-mac1 [2]; [12]): 17.6%; inhibition at 99.5 µM (SARS-CoV-2 nsp3-mac1 [2]; [12]): 32.2%
Cc1n[nH]c(C)c1C(=O)N1CCC(c2ccn3ncc(C(=O)N4CCCCC4)c3c2)CC1 [ASAP-0000330] | 10.806 | 23.296 | inhibition at 49.75 µM (SARS-CoV-2 nsp3-mac1 [2]; [13]): 10.8%; inhibition at 99.5 µM (SARS-CoV-2 nsp3-mac1 [2]; [13]): 23.3%
Cn1cnc(C(=O)N(CCC(=O)N2CCNCC2)Cc2cccc(Cl)c2)n1 [ASAP-0000331] | -1.441 | -0.25 | inhibition at 49.75 µM (SARS-CoV-2 nsp3-mac1 [2]; [14]): -1.44%; inhibition at 99.5 µM (SARS-CoV-2 nsp3-mac1 [2]; [14]): -0.25%
Cc1cocc1C(=O)N(CCC(=O)N1CCNCC1)Cc1cccc(Cl)c1 [ASAP-0000332] | 1.398 | 0.51 | inhibition at 49.75 µM (SARS-CoV-2 nsp3-mac1 [2]; [15]): 1.4%; inhibition at 99.5 µM (SARS-CoV-2 nsp3-mac1 [2]; [15]): 0.51%
Cn1nncc1C(=O)N(CCC(=O)N1CCNCC1)Cc1cccc(Cl)c1 [ASAP-0000333] | 0.447 | -2.15 | inhibition at 49.75 µM (SARS-CoV-2 nsp3-mac1 [2]; [16]): 0.447%; inhibition at 99.5 µM (SARS-CoV-2 nsp3-mac1 [2]; [16]): -2.15%
O=C(CCN(Cc1cccc(Cl)c1)C(=O)c1cnon1)N1CCNCC1 [ASAP-0000334] | -2.442 | -1.082 | inhibition at 49.75 µM (SARS-CoV-2 nsp3-mac1 [2]; [17]): -2.44%; inhibition at 99.5 µM (SARS-CoV-2 nsp3-mac1 [2]; [17]): -1.08%
O=C(CCN(Cc1cccc(Cl)c1)C(=O)c1ccc(F)cn1)N1CCNCC1 [ASAP-0000335] | 6.758 | 6.737 | inhibition at 49.75 µM (SARS-CoV-2 nsp3-mac1 [2]; [18]): 6.76%; inhibition at 99.5 µM (SARS-CoV-2 nsp3-mac1 [2]; [18]): 6.74%
Nc1c(O)cccc1C(=O)N(CCC(=O)N1CCNCC1)Cc1cccc(Cl)c1 [ASAP-0000336] | -1.238 | 1.457 | inhibition at 49.75 µM (SARS-CoV-2 nsp3-mac1 [2]; [19]): -1.24%; inhibition at 99.5 µM (SARS-CoV-2 nsp3-mac1 [2]; [19]): 1.46%
